Results taken from PubChem BioAssay AID1902 (Broad Institute, 2009).
The source made the active and inactive calls.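 How the source made its calls: active means EC50 no more than a set limit of log units above the highest dose; inactive means the rest.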

The compounds below were run against S. pyogenes SKKanGAS, kanamycin survival, BacTiterGlo, 6 h (assay: S. pyogenes SKKanGAS kanamycin growth inhibitors – SKKanGAS strain, luminescence, dose confirmation, streptokinase promoter inhibitor project, dose response (AID 1902);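 further: lower survival reflects blocked streptokinase promoter driving kanamycin resistance gene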).

Row | Compound | EC50
1 | COc1ccccc1NC(=O)NCCCCc1ccccc1 | > 15 µM (inactive)
2 | CCOC(=O)c1cnc(-n2nc(C)cc2C)nc1Nc1ccc(C)cc1 | 0.101 µM
3 | N#Cc1c(Nc2cccc(F)c2)sc2c(O)cc(=O)[nH]c12 | 0.861 µM
4 | O=C(Nc1ccccc1Sc1ccccc1)c1ccccc1F | 4.53 µM
5 | CCCCNC(=O)c1sc(=S)n2c1[nH]c(=O)c1ccccc12 | 9.08 µM
6 | Cc1nc(-c2ccc(S(=O)(=O)Nc3ccc(Br)cc3Cl)s2)cs1 | 5.14 µM
7 | O=C(CSc1nnc(CNC(=O)c2ccc(F)cc2)o1)NCc1ccccc1 | > 15 µM (inactive)
8 | O=[N+]([O-])c1cc(Br)c(O)c(/C=N/Nc2nnnn2-c2cccc3ccccc23)c1 | 5.44 µM
9 | CCCC1CC(C(=O)NC(C(C)Cl)C2OC(SC)C(O)C(O)C2O)N(C)C1 (configuration not stated) | < 0.06 µM
10 | O=C(Cc1ccccc1)N/N=C/c1ccccn1 | > 15 µM (inactive)
11 | Cc1ccc(Nc2nc(N/N=C\c3ccc4c(c3)OCO4)nc(N3CCOCC3)n2)cc1 | 4.5 µM
12 | O=C(NNc1nc(-c2ccc(F)cc2)cs1)c1ccccc1 | 2.17 µM
13 | CC(C)(C)c1ccc(OCC(=O)Nc2ccc(C(=O)Nc3ccccc3C(=O)O)cc2)cc1 | 1.54 µM
14 | CC1CC(NC(=O)c2c(O)nc3sccn3c2=O)CC(C)(C)C1 (configuration not stated) | 7.03 µM
15 | CCOC(=O)N1CCN(C(=O)c2ccc3c(c2)NC(=O)/C(=C/c2ccccc2)S3)CC1 | 1.59 µM
16 | CC(C)CC(=O)Nc1ccc(C(=O)NNC(=S)NC(=O)C2CCCCC2)cc1 | 1 µM
17 | O=[N+]([O-])c1cc(Br)c(O)c(/C=N/Nc2nc3ccccc3s2)c1 | 1.23 µM
18 | CCCCCCCOC(=O)C[N+](C)(C)CCOC1CC2CCC1(C)C2(C)C (configuration not stated) | 4.52 µM
19 | COc1cc(OC)cc(-c2cc3nc4c(c(N5CCN(c6ncccn6)CC5)n3n2)CCCC4)c1 | 6.28 µM
20 | O=C(NC(NC(=S)Nc1c(Cl)cccc1Cl)C(Cl)(Cl)Cl)OCc1ccccc1 (configuration not stated) | 2.5 µM
21 | O=C(Nc1ccc(OC(F)(F)F)cc1)C1CCCN(S(=O)(=O)c2cnc[nH]2)C1 (configuration not stated) | > 15 µM (inactive)
22 | CC(C)COc1ccc(-c2nn(-c3ccccc3)cc2/C=C2/SC(=S)N(CC(=O)O)C2=O)cc1 | 2.18 µM

Row | Compound | EC50
23 | Cc1cccc(NCc2nc3ccccc3n2Cc2ccccc2)c1 | 2.75 µM
24 | CC1(C(=O)NC(=S)NNC(=O)c2ccncc2)CCCCC1 | 1.1 µM
25 | Cc1nn(-c2ccccc2)c2c1C(c1ccc(O)c(O)c1)N1C(=N2)C(Nc2ccccc2)=Nc2ccccc21 (configuration not stated) | 1.36 µM
26 | O=C(Nc1ccc(Cl)c(Cl)c1)Nc1ccon1 | 14.5 µM
27 | C/C(=N/NS(=O)(=O)c1ccc(Cl)cc1)c1cccc(NC(=O)c2ccc(Cl)cc2Cl)c1 | 4.79 µM
28 | O=C(N/N=C/c1cc([N+](=O)[O-])ccc1O)c1cccc(N2CCCC2=O)c1 | 1.21 µM
29 | CC1(C(=O)OCC(=O)Nc2nc(-c3ccc(F)c(F)c3)cs2)CC1(Cl)Cl (configuration not stated) | 6.72 µM
30 | Cc1ccc(C2(c3ccc(C)cc3)CC2C(=O)Nc2ccc([N+](=O)[O-])cc2O)cc1 (configuration not stated) | 2.15 µM
31 | COc1ccc(C(=O)NCC(=O)OCCCOC(=O)CNC(=O)c2ccc(OC)c(OC)c2)cc1OC | > 15 µM (inactive)
32 | Cc1ccc(NC(=O)CN2C(=O)S/C(=C/c3ccc(-c4cc(C(=O)O)ccc4C)o3)C2=O)cc1C | 2.11 µM
33 | CCCSc1cc(N2CCCC2)nc(-c2ccccc2)n1 | 6.8 µM
34 | CCOC(=O)c1cnn(-c2nc(-c3ccccc3)cs2)c1C(F)(F)F | 5.29 µM
35 | O=C(N/N=C/c1cc([N+](=O)[O-])cc(Br)c1O)C12CC3CCC(CC(C3)C1)C2 | 5.07 µM
36 | CCCOC(=O)c1ccc(Oc2cn[nH]c2-c2ccc(OC)cc2O)cc1 | 7.36 µM
37 | S=C1NC[C@H](CC2CCCCC2)N1CC1CCCCC1 | 7.69 µM
38 | O=C(Nc1ccc(N2CCCC2)c(S(=O)(=O)Nc2cccc(C(F)(F)F)c2)c1)c1cccs1 | 3.95 µM
39 | CCCCn1c(O)c(C(C)=Nc2ccc(OCC)cc2)c(=O)[nH]c1=O | 9.75 µM
40 | O=C(NNC(=S)Nc1ccc(Cl)c(Cl)c1)c1ccccn1 | 1.66 µM
41 | COc1ccc(C(=O)Nc2nnc(-c3ccccc3)o2)cc1OC | 5.56 µM
42 | Cc1nnc(SCC2=C(C(=O)O)N3C(=O)C(NC(=O)c4cccc(F)c4F)C3SC2)s1 (configuration not stated) | 0.269 µM
43 | O=C(c1cnn2c(C(F)(F)F)cc(-c3ccc(F)cc3)nc12)N1CCc2ccccc2C1 | 12.1 µM
44 | O=c1[nH]c(CN2CC=C(c3ccccc3)CC2)nc2scc(-c3ccccc3)c12 | 3.17 µM

Row | Compound | EC50
45 | CCCCCCCCCCCCn1ccc(=N)cc1 | 4.1 µM
46 | CCC1C(=NO)C(CC)C(c2ccccc2)NC1c1ccccc1 (configuration not stated) | 3.34 µM
47 | CC(CNC(=S)Nc1cc(F)cc(F)c1)CSc1ccc(Cl)cc1 (configuration not stated) | 8.56 µM
48 | O=C1Nc2cc(C(=O)N3CCN(c4ccccn4)CC3)ccc2S/C1=C\c1ccccc1 | 3.35 µM
49 | CC(NC(=O)Cn1c(=O)[nH]c2ccsc2c1=O)C12CC3CC(CC(C3)C1)C2 (configuration not stated) | > 15 µM (inactive)
50 | CCOC(=O)Nc1ccc(OCc2nnc3c4ccccc4c(C)nn23)cc1 | < 0.06 µM
51 | CCCCCc1ccc(OCCCC[n+]2ccccc2)c(CCCCC)c1 | 7.07 µM
52 | CCCN(CC1CC1)c1nc(C)nc(Nc2c(Cl)cc(Cl)cc2Cl)c1Cl | 1.26 µM
53 | Cc1noc(C)c1CSc1nc2sc(C)c(C)c2c(=O)n1C1CCCC1 | 2.94 µM
54 | Cc1ccc(C(=O)c2c(C)oc3c2C(=O)C(=O)c2ccccc2-3)cc1 | 0.801 µM
55 | Cc1cc(N/N=C/c2ccc(O)c(C)c2O)nc(-c2ccccc2O)n1 | 3.09 µM
56 | Oc1c(Cl)cc(Cl)cc1C(C#Cc1ccccc1)N1CCOCC1 (configuration not stated) | 12.2 µM
57 | COc1ccc(NC(=O)CSc2ccc3nnc(-c4ccccn4)n3n2)c(OC)c1 | > 15 µM (inactive)
58 | O=c1c([N+](=O)[O-])cccn1Cc1ccc(F)cc1Cl | 3.38 µM
59 | COc1ccc(-c2c/c(=N\c3nc(-c4ccccc4)c(C)s3)c3ccccc3o2)cc1O | 11 µM
60 | Cc1[nH]n2c(=O)cc(-c3ccc([N+](=O)[O-])cc3)nc2c1-c1ccccc1 | 0.319 µM
61 | O=C(N/N=C/c1ccccc1O)c1cccc2ccccc12 | 3.08 µM
62 | O=C(NC(=S)NNC(=O)c1ccc(Cl)cc1Cl)c1cccnc1 | 3.07 µM
63 | COc1ccccc1N=Nc1ccc(O)c2ncccc12 | 0.665 µM
64 | CCc1c(O)nc(SCC(=O)Nc2nc3ccccc3s2)n(C2CCCCC2)c1=O | 8.89 µM
65 | CCCOc1ccc(C2C(C(=O)c3cc4ccccc4o3)=C(O)C(=O)N2c2cc(C)on2)cc1OC (configuration not stated) | 1.98 µM
66 | O=C(CP(=O)(c1ccccc1)c1ccccc1)N/N=C/c1cc(Br)cc(Br)c1O | 0.804 µM

Row | Compound | EC50
67 | CC12CC3(C)CC(C)(C1)CC(C(=O)NC1=NCCS1)(C2)C3 | 0.992 µM
68 | Cn1c(C(=O)N2CCN(c3ccc([N+](=O)[O-])cc3)CC2)cc2c(=O)[nH]c3ccccc3c21 | 4.56 µM
69 | Oc1ccc(Oc2ccc(Oc3ccc(O)cc3)cc2)cc1 | 5.25 µM
70 | Cc1ccc(S(=O)(=O)N(C)CC(=O)N2CC(C)OC(C)C2)cc1 (configuration not stated) | > 15 µM (inactive)
71 | Cc1cccc(CCNC(=O)CC2C(=O)NCCN2Cc2ccccc2C)n1 (configuration not stated) | > 15 µM (inactive)
72 | Fc1ccc(Br)cc1C1C=C(c2ccc(Br)s2)Nc2ncnn21 (configuration not stated) | 6.39 µM
73 | Cc1cccc(OC(=O)c2sc3ncn(C)c(=O)c3c2C)c1 | 4.09 µM
74 | Cn1ncc(Cl)c1C(=O)N1CCC2(CC1)OCCO2 | > 15 µM (inactive)
75 | O=C(Nc1nnc(C2=COCCO2)o1)c1ccc(Cc2ccccc2)cc1 | 1.47 µM
76 | CC(C)c1ccc(-n2cccc2/C=C2/C(=N)N3C=CSC3=NC2=O)cc1 | 3.28 µM
77 | Oc1c(C(Nc2ccccn2)c2cccnc2)cc(Cl)c2cccnc12 (configuration not stated) | 2.46 µM
78 | CN1CCN(NC(=O)Nc2cc(Cl)cc(Cl)c2)CC1 | 3.72 µM
79 | O=C(NC(=S)NNC(=O)c1ccccc1O)c1ccco1 | 3.06 µM
80 | Cc1ccc2nc(NNC(=O)c3ccc(S(=O)(=O)N4CCc5ccccc5C4)cc3)sc2c1 | 0.793 µM
81 | Oc1c(C=Nc2cccc3cccnc23)sc2ccccc12 | 3.94 µM
82 | OC(CN=c1sc2ccccc2n1CC(O)COc1ccccc1)COc1ccccc1 (configuration not stated) | 6.28 µM
83 | O=C(CN1CCCC1)Nc1ccc(NC(=O)Nc2ccccc2)cc1 | > 15 µM (inactive)
84 | CN(C)CCCn1c(SCC(=O)Nc2nc(-c3cccc(Br)c3)cs2)nc2ccccc2c1=O | 4.73 µM
85 | O=C(COn1nnc2ccc(C(F)(F)F)cc21)Nc1nnc(-c2ccccc2)o1 | 2.51 µM
86 | CC(C)CN1C(=S)SC(C)(C)C1n1oc(=O)n(-c2ccc(Cl)cc2)c1=O (configuration not stated) | 4.33 µM
87 | CCC1CCCCN1S(=O)(=O)c1ccc(C(=O)Nc2nnc(C3=COCCO3)o2)cc1 (configuration not stated) | 5.72 µM
88 | COc1cccc(COC(=O)c2sc3nc4n(c(=O)c3c2C)CCC4)c1OC | 4.76 µM

Row | Compound | EC50
89 | CCOC(=O)c1cc(-c2ccc(OC(F)F)cc2)nc2c1c(=O)[nH]c(=O)n2C | 0.392 µM
90 | O=C1c2ccc3c4c(ccc(c24)C(=O)N1c1cccc(O)c1)C(=O)N(c1cccc(O)c1)C3=O | 1.27 µM
91 | C[C@H]1c2cccc(O)c2C(O)=C2C(=O)[C@]3(O)C(O)=C(C(N)=O)C(=O)[C@@H](N(C)C)C3[C@@H](O)C21 (some centres not stated) | < 0.06 µM
92 | O=[N+]([O-])c1ccc(O)c(/C=N/Nc2ncnc3c2cnn3-c2ccccc2)c1 | 0.742 µM
93 | COc1cc(/C=C/C(=O)OCC(=O)c2c(N)n(C)c(=O)n(C)c2=O)ccc1OCC#N | 5.45 µM
94 | Cc1ccc(Cl)cc1NC1=C/C(=N\S(=O)(=O)c2cccs2)c2ccccc2C1=O | 0.908 µM
95 | O=C1NC[C@@H](Cc2cccc3ccccc23)N(CCCCC2CCCCC2)C1=O | 3.93 µM
96 | Cc1ccc(/C=N/NC(=O)Cc2ccc(Cl)cc2)c(O)c1 | 0.866 µM
97 | O=C(Cc1csc(NC(=O)Nc2cccc(Cl)c2)n1)NCc1ccccn1 | 6.87 µM
98 | Cc1cc(C)nc(SCC(=O)NC2=NN=C(c3ccc(Br)cc3)CS2)n1 | 3.07 µM
99 | CC(C)(C)c1ccc(-c2noc(-c3ccc4c(c3)CCO4)n2)cc1 | 7.95 µM
100 | O=C1C2C(c3ccccc3)=NN(c3ccccc3)C2C(=O)N1c1ccccc1 (configuration not stated) | 0.704 µM
101 | N#Cc1c(-c2ccccc2)c(-c2ccccc2)nn(CC(=O)NNC(=O)Nc2ccc(Cl)c(Cl)c2)c1=O | 5.3 µM
102 | O=C(Cc1cccs1)NNC(=S)NC(=O)c1ccccc1 | 3.29 µM
103 | N#Cc1c(-c2ccccc2)nc(SCC(=O)N2c3ccccc3Sc3ccccc32)[nH]c1=O | 3.87 µM
104 | O=C(Cc1ccccc1)Nn1c(O)c(/C=C2\C=Nc3ccccc32)sc1=S | 14.6 µM
105 | Fc1ccc(-c2csc3ncnc(N4CCc5ccccc5C4)c23)cc1 | 2.73 µM
106 | Cc1ccccc1Oc1nc(-c2ccccn2)nc2ccccc12 | 4.19 µM
107 | CN(C)CCCNC(=S)NCC(c1ccc(Cl)cc1Cl)c1c[nH]c2ccccc12 (configuration not stated) | 7.22 µM
